Test results as given in patent publication EP0073390A1, “Combination of active substances from kitasamycine and quinoxaline-di-N oxides” (BAYER AG, priority 1981, dated 1983).

Columns and labels:
[1] = tested on: Ferkel; test: Feeding trial with piglets, Beispiel 1 (daily weight gain and feed conversion); format: in vivo
Description: a) Tier-Charakteristik und Futter
• a1) Ferkel • a2) Anzahl 30 • a3) Zucht große weiße Landrasse Kreuzungszucht • a4) Geschlecht männlich • a5) Alter etwa 8 bis 14 Wochen • a6) Gewicht 17,5 bis 45 kg • a7) Zustand gut • a8) Futter [formula]
Ingredientien: • Weizen, Gerste, Hirse, Kleie, Fleischmehl, Sojabohnenmehl, Baumwollsamenmehl, Sonnenblumensamenmehl, Lysin, Salz, Kalkstein, 2RO, MnO, Kupfer- und Eisensulfat, Kaliumjodid, Vitamine A, D, E, K, B/2, Niazin, Pantothensäure.
Die Behandlung der Tiere wurde in 5 Behandlungsgruppen durchgeführt. Das Anfangsgewicht für jede Gruppe war gleich.
Die Ferkel wurden […] gewogen. Es wurde die tägliche Gewichtszunahme und Futterverwertung bestimmt. Wöchentliches Wiegen und individuelle Futteraufnahme wurden notiert.

[2] = tested on: Ferkel; test: Feeding trial with piglets, Beispiel 2 (weight gain, feed conversion, back fat thickness by ultrasound); format: in vivo
Description: a) Tiercharakteristik und Futter
Die Ferkel wurden zu Versuchbeginn und in wöchentlichen oder vierzehntägigen Abständen bis zum Versuchsende gewogen.
Futtermenge und Mortalität wurden täglich notiert.
Die Rückenfettstärke wurde per Ultraschall am Versuchsende gemessen und auf 75 kg Lebendgewicht korrigiert.

Question: What does the source list for `Cc1c(C(=O)NCCO)[n+]([O-])c2ccccc2[n+]1[O-]` [d1)]?
Answer: Durchschnittliche tägliche Gewichtszunahme ([1]; Beispiel 1, Ferkel, male, about 8 to 14 weeks, 17,5 bis 45 kg, Konzentration (ppm): d1) 50, d2) 50, d3) 25:25, d4) 12,5:12,5, Kontrolle 537): 593 g/Tag; Durchschnittliches Futterverwertungsverhältnis ([1]; Beispiel 1; Ferkel; groups e1)-e4) correspond to d1)-d4); concentration column printed empty; e5) (presumably control) 2,72): 2,52 g/g; Futterverwertung ([2]; 40 kg bis 75 kg): 3,10 g/g; Gewichtszunahme ([2]; 40 kg bis Ende): 641 g/Tag; Futterverwertung ([2]; Beginn bis 40 kg): 2,30 g/g; Gewichtszunahme ([2]; Beginn bis 40 kg): 499 g/Tag; Futterverwertung ([2]; Beginn bis Ende): 2,74 g/g; Gewichtszunahme ([2]; Beginn bis Ende): 573 g/Tag
